Legend:
Sf9 α1,2-mannosidase = biological target: T1, Sf9 α1,2-mannosidase (Spodoptera frugiperda, UniProt O18498); assay: α1,2-mannosidase activity assay, release of [3H]mannose from [3H]Man9GlcNAc by lysates of recombinant baculovirus-infected Sf9 cells; assay type: biochemical; conditions: cell lysates at 48 hours postinfection (FIG. 15B); for α-mannosidase activity in recombinant baculovirus-infected cells, inhibition by dMNJ: 500 μM dMNJ
T1 construct: This screening procedure identified a full-length α1,2-mannosidase cDNA clone which contains an ORF; made in house; host or cells: Sf9 cells infected with recombinant baculovirus (pVL1393 transfer plasmid, polyhedrin promoter, BacPAK6 DNA); Triton X-100 cell lysate, not purified
T1 sequence (O18498 1-670): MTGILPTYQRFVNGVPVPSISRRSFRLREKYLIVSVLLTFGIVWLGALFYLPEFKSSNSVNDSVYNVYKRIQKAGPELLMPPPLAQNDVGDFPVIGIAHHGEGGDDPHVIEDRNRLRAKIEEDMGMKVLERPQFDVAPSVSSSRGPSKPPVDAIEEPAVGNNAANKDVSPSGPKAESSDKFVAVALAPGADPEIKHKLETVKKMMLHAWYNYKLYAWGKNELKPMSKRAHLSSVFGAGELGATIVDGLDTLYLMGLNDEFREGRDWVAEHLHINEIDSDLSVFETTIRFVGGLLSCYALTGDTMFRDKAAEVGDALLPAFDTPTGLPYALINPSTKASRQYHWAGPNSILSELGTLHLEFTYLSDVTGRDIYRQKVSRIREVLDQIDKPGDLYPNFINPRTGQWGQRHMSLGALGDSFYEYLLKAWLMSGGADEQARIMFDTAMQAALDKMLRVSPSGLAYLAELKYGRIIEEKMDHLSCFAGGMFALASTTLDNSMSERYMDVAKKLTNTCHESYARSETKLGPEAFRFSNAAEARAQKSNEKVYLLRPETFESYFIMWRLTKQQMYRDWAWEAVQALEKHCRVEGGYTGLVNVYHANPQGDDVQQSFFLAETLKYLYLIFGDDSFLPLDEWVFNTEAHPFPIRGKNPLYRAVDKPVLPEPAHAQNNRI
Experimental: Sf9 cell lysates were used for α1,2-mannosidase activity assays with [3H]Man9GlcNAc as described previously (Herscovics and Jelinek-Kelly, 1987) with some modifications. The cells were seeded into 25 cm tissue culture flasks (Corning Glass Works, Corning, N.Y.) at a density of 3 million cells per flask and infected at a multiplicity of infection of 10 plaque forming units per cell with either a recombinant baculovirus encoding the Sf9 α1,2-mannosidase cDNA under the control of the polyhedrin promoter, or wild type baculovirus as a control. The cells were harvested by centrifugation at selected times after infection, washed with 100 mM Na^+MES (pH 6.0), and lysed using 1 ml per 30,000 cells of the same buffer containing 0.5% Triton X-100 with or without 80 mM EDTA.
[…] of the lysates were used in each reaction of the α1,2-mannosidase activity assays. Cell lysates for negative control reactions were boiled for 3 min prior to being added to the reactions. All reactions were carried out in a total volume of […] containing 75 mM Na^+MES (pH 6.0), 0.0625% Triton X-100, and 6000 cpm of [^3H]MangGlcNAc. In addition, some reactions contained CaCl2, MgCl2, EDTA, or dMNJ. The reactions were incubated at 37° C. for 2.5 hours, boiled for 2 min, and 250 ml of a 5 mM solution of CaCl2, MgCl2, and MnCl2, and 175 ml of a 2.25 mg/ml solution of concanavalin A (Boehringer-Mannheim, Indianapolis, Ind.) in 3.8 M NaCl were added to each reaction. The solutions were vortexed gently and incubated at room temperature for two minutes, then 1 ml of 25% PEG-8000 was added and the solutions were vortexed and incubated for another 5 min at room temperature. The solutions were then centrifuged for 2 min at 10,000×g, 1 ml of the supernatant was added to 4 ml of a scintillation cocktail (Ultima Gold™; Packard Instrument Company, Meriden, Conn.), and radioactivity was measured using a Beckman liquid scintillation counter (Model LS 60001C; Beckman Instruments, Inc., Fullerton, Calif.).

N-linked glycans on gp64 = conditions: baculovirus-infected lepidopteran cells (Jarvis and Garcia, 1994); cited from earlier work
Sf9 α-mannosidase II = biological target: T2, Sf9 α-mannosidase II (Spodoptera frugiperda, UniProt O18497); assay: α-mannosidase activity assay with p-nitrophenyl α-D-mannopyranoside on extracts of recombinant baculovirus-infected Sf9 cells; assay type: biochemical; conditions: various concentrations of swainsonine; extracts 24, 36, 48 h postinfection (FIG. 7B)
T2 construct: The assembled full-length open reading frame of the Sf9 α-mannosidase II cDNA; made in house; host or cells: Sf9 cells infected with recombinant baculovirus (pVL1392 transfer vector, polyhedrin promoter); Triton X-100 cell extract, not purified
T2 sequence (O18497 1-1130): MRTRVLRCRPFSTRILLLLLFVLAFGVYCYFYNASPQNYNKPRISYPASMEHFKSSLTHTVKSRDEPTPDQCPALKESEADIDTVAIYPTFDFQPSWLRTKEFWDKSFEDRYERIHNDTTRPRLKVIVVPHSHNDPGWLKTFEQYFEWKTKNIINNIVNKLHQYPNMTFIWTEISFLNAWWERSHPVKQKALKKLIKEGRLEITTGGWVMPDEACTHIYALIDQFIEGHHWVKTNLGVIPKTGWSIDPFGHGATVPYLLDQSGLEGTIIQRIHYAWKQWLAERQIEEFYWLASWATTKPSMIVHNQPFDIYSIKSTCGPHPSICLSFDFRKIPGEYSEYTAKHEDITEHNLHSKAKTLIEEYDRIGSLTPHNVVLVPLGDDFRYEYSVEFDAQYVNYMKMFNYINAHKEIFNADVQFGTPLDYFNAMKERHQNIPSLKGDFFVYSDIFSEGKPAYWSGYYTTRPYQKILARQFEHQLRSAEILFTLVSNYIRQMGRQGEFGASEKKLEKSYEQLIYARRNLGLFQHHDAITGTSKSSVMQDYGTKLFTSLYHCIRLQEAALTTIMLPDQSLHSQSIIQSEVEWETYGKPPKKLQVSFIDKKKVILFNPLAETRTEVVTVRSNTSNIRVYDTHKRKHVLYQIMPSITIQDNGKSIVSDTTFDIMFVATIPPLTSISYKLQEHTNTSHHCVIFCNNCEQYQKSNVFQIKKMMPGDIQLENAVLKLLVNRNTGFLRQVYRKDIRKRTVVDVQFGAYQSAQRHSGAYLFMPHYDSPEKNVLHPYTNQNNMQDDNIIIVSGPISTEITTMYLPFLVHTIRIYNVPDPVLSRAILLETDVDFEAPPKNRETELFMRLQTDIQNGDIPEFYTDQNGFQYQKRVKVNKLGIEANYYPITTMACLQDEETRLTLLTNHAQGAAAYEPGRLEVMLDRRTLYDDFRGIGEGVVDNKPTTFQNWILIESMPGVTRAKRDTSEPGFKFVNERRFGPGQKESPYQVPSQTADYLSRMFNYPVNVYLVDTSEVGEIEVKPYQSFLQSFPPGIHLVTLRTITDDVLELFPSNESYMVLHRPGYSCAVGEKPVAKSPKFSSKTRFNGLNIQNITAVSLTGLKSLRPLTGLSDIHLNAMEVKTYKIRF
Experimental: Sf9 cells were infected with wild-type or recombinant baculoviruses were harvested by centrifugation at various times after infection, and pellets containing 1×10^6 cells were resuspended in 100 μl of assay buffer (0.1 M MES, pH 6.3; 0.5% Triton-X-100). The cell suspensions were assayed for o-mannosidase activity by mixing 25 μl of the cell extracts with 25 μl of 10 mM p-nitrophenyl α-D-mannopyranoside in the presence or absence of various concentrations of swainsonine. The reaction mixtures were incubated in a microtiter plate for 1 hr at 37° C. with gentle agitation, then quenched by the addition of 200 μl of stop solution (133 mM glycine, 67 mM NaCl, 83 mM Na2CO3). Absorbance was measured at 410 nm on a plate reader (Dynatech Model MR 5000), corrected for light scattering at 570 nm, and the corrected absorbance values were converted to nmol p-nitrophenol using a standard curve produced on the same plate reader.

In the case of `O=C(O)CN(CCN(CC(=O)O)CC(=O)O)CC(=O)O` [EDTA], the “α-mannosidase activity in recombinant baculovirus-infected cells, inhibition by EDTA” value (Sf9 α1,2-mannosidase; 10 mM EDTA, reversed by calcium, not magnesium) is reported as “strongly inhibited”.

For `OC[C@H]1NC[C@@H](O)[C@@H](O)[C@@H]1O` [dMNJ, 1-deoxymannojirimycin], the “α-mannosidase activity in recombinant baculovirus-infected cells, inhibition by dMNJ” value (Sf9 α1,2-mannosidase) is given as “strongly inhibited”, the “α-mannosidase activity in recombinant baculovirus-infected cells, inhibition by dMNJ” value (Sf9 α1,2-mannosidase; listed as 1-deoxymannojirimycin) is given as “inhibited” and the “processing of N-linked glycans on gp64” value (N-linked glycans on gp64) is given as “block the processing”.

With `O[C@H]1[C@H]2[C@H](O)CCCN2C[C@H]1O` [swainsonine] the “α-mannosidase activity in recombinant baculovirus-infected cell extracts in the presence of swainsonine” value (Sf9 α-mannosidase II) was “sensitive”.
